This note sets out measurements from US8778951B2, “Heteroaryl compounds and their uses” (Novartis AG, priority 2009, dated 2014).

Cdk9/cyclinT1, sequence (P50750 whole entry): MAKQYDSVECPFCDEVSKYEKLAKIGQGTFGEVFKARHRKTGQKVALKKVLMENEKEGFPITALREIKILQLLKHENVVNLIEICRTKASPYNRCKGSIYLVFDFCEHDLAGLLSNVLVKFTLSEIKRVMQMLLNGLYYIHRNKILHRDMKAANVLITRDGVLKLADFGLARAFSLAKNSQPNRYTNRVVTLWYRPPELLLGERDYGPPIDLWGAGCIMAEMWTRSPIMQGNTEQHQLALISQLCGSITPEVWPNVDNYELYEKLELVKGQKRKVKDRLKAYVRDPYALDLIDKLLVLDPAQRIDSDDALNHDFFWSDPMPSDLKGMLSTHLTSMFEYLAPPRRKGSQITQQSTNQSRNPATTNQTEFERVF
Cdk9/cyclinT1, sequence (O60563 whole entry partner): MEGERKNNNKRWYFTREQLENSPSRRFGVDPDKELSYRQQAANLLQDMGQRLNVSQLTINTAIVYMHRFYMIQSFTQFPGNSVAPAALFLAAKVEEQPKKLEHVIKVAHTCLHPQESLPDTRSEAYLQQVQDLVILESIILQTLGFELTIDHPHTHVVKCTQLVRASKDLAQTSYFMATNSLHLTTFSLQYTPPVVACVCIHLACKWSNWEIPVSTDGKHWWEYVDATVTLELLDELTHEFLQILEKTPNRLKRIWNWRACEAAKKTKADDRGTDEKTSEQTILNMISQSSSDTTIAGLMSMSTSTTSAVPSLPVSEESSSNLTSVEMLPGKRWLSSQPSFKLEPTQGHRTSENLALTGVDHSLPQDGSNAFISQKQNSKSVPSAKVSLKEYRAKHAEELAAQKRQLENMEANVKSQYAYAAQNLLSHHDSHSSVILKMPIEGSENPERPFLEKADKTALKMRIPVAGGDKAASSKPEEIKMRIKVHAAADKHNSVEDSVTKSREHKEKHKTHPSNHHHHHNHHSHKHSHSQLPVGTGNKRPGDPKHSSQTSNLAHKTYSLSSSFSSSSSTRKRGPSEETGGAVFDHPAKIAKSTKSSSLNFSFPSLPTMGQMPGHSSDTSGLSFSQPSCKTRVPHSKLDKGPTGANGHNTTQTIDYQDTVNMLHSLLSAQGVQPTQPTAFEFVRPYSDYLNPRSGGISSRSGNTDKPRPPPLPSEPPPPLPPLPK

This experiment concerns the target Cdk9/cyclinT1 (Homo sapiens (Human), UniProt P50750). Kind of experiment: Cdk9/CyclinT1 IMAP Protocol (fluorescence polarization kinase assay). The settings on record: Table 2; generated using one of the two Cdk9/cyclinT1 assays (IMAP or Alpha Screen), not specified which; unit inferred. The class given is biochemical. The method, then:
Cdk9/CyclinT1 IMAP Protocol
The biological activity of the compounds of the invention can be determined using the assay described below.
Cdk9/cyclinT1 is purchased from Millipore, cat #14-685. The final total protein concentration in the assay 4 nM. […] The final concentration of peptide substrate is 100 nM. The ATP substrate (Adenosine-5′-triphosphate) is purchased from Roche Diagnostics, cat#1140965. The final concentration of ATP substrate is 6 uM. IMAP (Immobilized Metal Assay for Phosphochemicals) Progressive Binding reagent is purchased from Molecular Devices, cat#R8139. Fluorescence polarization (FP) is used for detection. The 5TAMRA-cdk7tide peptide is phosphorylated by Cdk9/cyclinT1 kinase using the ATP substrate. The Phospho-5TAMRA-cdk7tide peptide substrate is bound to the IMAP Progressive Binding Reagent. The binding of the IMAP Progressive Binding Reagent changes the fluorescence polarization of the 5TAMRA-cdk7tide peptide which is measured at an excitation of 531 nm and FP emission of 595 nm. Assays are carried out in 100 mM Tris, pH=7.2, mM MgCl2, 0.05% NaN3, 0.01% Tween-20, 1 mM dithiothreitol and 2.5% dimethyl sulfoxide. IMAP Progressive Binding Reagent is diluted 1:800 in 100% 1× Solution A from Molecular Devices, cat#R7285.
General protocol is as follows: To 10 ul of cdk9/cyclinT1, 0.5 ul of test compound in dimethyl sulfoxide is added. 5TAMRA-cdk7tide and ATP are mixed. 10 ul of the 5TAMRA-cdk7tide/ATP mix is added to start the reaction. The reaction is allowed to proceed for 4.5 hrs. 60 uL of IMAP Progressive Binding Reagent is added. After >1 hr of incubation, plates are read on the Envision 2101 from Perkin-Elmer. The assay is run in a 384-well format using black Corning plates, cat#3573.
On the technique in general: Polarisation of emitted light reports the rotation of a fluorescent probe.
Consider `CN1CCC[C@H]1C(=O)N1CCC(Nc2cc(-c3cccc(NCc4cccc(F)c4)n3)c(Cl)cn2)CC1` [Compound 86], for which the half-maximal inhibitory concentration (IC50) (commonly the concentration needed to halve the response being measured) stood at 81.5 nM.

Take `O[C@H]1CC[C@H](Nc2cc(-c3cncc(NCC4CCCOC4)n3)c(Cl)cn2)CC1` (stereo partly shown) [Compound 229]: the concentration for half-maximal inhibition (IC50) was 7.95 nM.

The compound `COCCN(C)[C@H]1CC[C@H](Nc2cc(-c3cccc(NCC4CCOCC4)n3)c(Cl)cn2)CC1` [Compound 279] registered an IC50 of 13.1 nM.

In turn, `N[C@H]1CC[C@H](Nc2cc(-c3cccc(NCc4ccccc4)n3)c(Cl)cn2)CC1` [Compound 25] came in with a half-inhibitory concentration (IC50) of 8.08 nM.

The compound `COC[C@@H](C)N[C@H]1CC[C@H](Nc2cc(-c3nc(NC[C@H]4CCCOC4)ccc3Cl)c(Cl)cn2)CC1` [Compound 327, 3,5′-dichloro-N2′-(trans-4-((R)-1-methoxypropan-2-yl-amino)cyclohexyl)-N6-(((R)-tetrahydro-2H-pyran-3-yl)methyl)-2,4′-bipyridine-2′,6-diamine] returned an IC50 of 1 nM.

Compound `O[C@H]1CC[C@H](Nc2cc(-c3cccc(NCC4COCCO4)n3)c(Cl)cn2)CC1` (stereo partly shown) [Compound 135] showed an IC50 of 142 nM.

As to `N[C@H]1CC[C@H](Nc2cc(-c3cccc(NCc4cccc(Br)c4)n3)c(Cl)cn2)CC1` [Compound 48], the concentration for half-maximal inhibition (IC50) worked out at 7.94 nM.

`N[C@H]1CC[C@H](Nc2cc(-c3nc(NCC4CCOCC4)ccc3Cl)c(Cl)cn2)CC1` [Compound 253, N2′-(trans-4-aminocyclohexyl)-3,5′-dichloro-N6-((tetrahydro-2H-pyran-4-yl)methyl)-2,4′-bipyridine-2′,6-diamine] displayed an IC50 of 7.94 nM.

`O=C(NC[C@H]1CC[C@H](Nc2cc(-c3cccc(NCc4cccc(F)c4)n3)c(Cl)cn2)CC1)c1cccnc1` [Compound 84] registered a half-maximal inhibitory concentration (IC50) of 14.1 nM.

In turn, `COC[C@@H](C)N[C@H]1CC[C@H](Nc2cc(-c3nc(NCC4CCOCC4)ccc3F)c(Cl)cn2)CC1` [Compound 293] came in with a half-maximal inhibitory concentration (IC50) of 1 nM.

Take `CC(C)(C)OC(=O)N1CCC(Nc2cc(-c3cccc(NCc4cccc(F)c4)n3)c(Cl)cn2)CC1` [Compound 67]: the midpoint of inhibition, the IC50, lay at 2550 nM.

With `COc1cccc(CNc2cccc(-c3cc(N[C@H]4CC[C@H](N)CC4)ncc3Cl)n2)c1` [Compound 44], half-maximal inhibition (IC50) required 11.2 nM.

`N[C@H]1CC[C@H](Nc2cc(-c3nc(NCC4CCOCC4)cnc3C(F)(F)F)c(Cl)cn2)CC1` [Compound 255, trans-N1-(5-chloro-4-(6-((tetrahydro-2H-pyran-4-yl)methyl)amino-3-(trifluoromethyl)pyrazin-2-yl)pyridin-2-yl)cyclohexane-1,4-diamine] registered an IC50 of 42.3 nM.

For `COC[C@@H](C)N[C@H]1CC[C@H](Nc2cc(-c3ccc(F)c(NCC4(C#N)CCOCC4)n3)c(Cl)cn2)CC1` [Compound 340, 4-((5′-chloro-5-fluoro-2′-(trans-4-((R)-1-methoxypropan-2-yl-amino)cyclohexylamino)-2,4′-bipyridin-6-ylamino)methyl)tetrahydro-2H-pyran-4-carbonitrile], the half-maximal inhibitory concentration (IC50) turned out to be 0.23 nM.

In turn, `O[C@H]1CC[C@@H](Nc2cc(-c3cccc(NCc4cccc(F)c4)n3)c(Cl)cn2)C1` [Compound 183] had an IC50 of 7.94 nM.

Regarding `N[C@H]1CC[C@H](Nc2cc(-c3cccc(NCc4ccc(C(F)(F)F)cc4)n3)c(Cl)cn2)CC1` [Compound 52], the IC50 worked out at 19.2 nM.

For `Clc1cccc(CNc2cccc(-c3cc(NC4CCNCC4)ncc3Cl)n2)c1` [Compound 73], the IC50 was determined as 35.2 nM.

As for `COC[C@@H](C)N[C@H]1CC[C@H](Nc2cc(-c3cccc(NCC4(OC)CCCCC4)n3)c(Cl)cn2)CC1` [Compound 306], the 50% inhibitory concentration (IC50) came to 9 nM.

As for `NC[C@H]1CC[C@H](Nc2cc(-c3cccc(NCc4ccncc4)n3)c(Cl)cn2)CC1` [Compound 60], the IC50 worked out at 7.95 nM.

Regarding `Nc1ncc(CNc2cccc(-c3cc(N[C@H]4CC[C@H](N)CC4)ncc3Cl)n2)cn1` [Compound 109], inhibition was half-maximal at 15.8 nM (IC50).

Consider `Clc1cnc(NC2CCNCC2)cc1-c1cccc(NCc2ccccc2)n1` [Compound 69], for which the IC50 was 154 nM.

`NC(=O)c1ccc(-c2cc(N[C@H]3CC[C@H](N)CC3)ncc2Cl)nc1NCc1cccc(F)c1` [Compound 138]: the 50% inhibitory concentration (IC50) stood at 522 nM.

For the compound `N[C@H]1CC[C@H](Nc2cc(-c3cncc(NC[C@@H]4CCCOC4)n3)c(Cl)cn2)CC1` [Compound 262], 7.94 nM corresponded to half-maximal inhibition (IC50).

`N[C@H]1CC[C@H](Nc2cc(-c3cccc(NCc4cccc(OC(F)F)c4)n3)c(Cl)cn2)CC1` [Compound 36] came in with an IC50 of 8.91 nM.

`N[C@H]1CC[C@H](Nc2cc(-c3cccc(NCC4CCCCC4)n3)c(Cl)cn2)CC1` [Compound 24] displayed an IC50 of 12.4 nM.

`CC1(CN[C@H]2CC[C@H](Nc3cc(-c4ccc(F)c(NCC5CCOCC5)n4)c(Cl)cn3)CC2)OCCO1` [Compound 333, 5′-chloro-5-fluoro-N2′-(trans-4-((2-methyl-1,3-dioxolan-2-yl)methyl)aminocyclohexyl)-N6-((tetrahydro-2H-pyran-4-yl)methyl)-2,4′-bipyridine-2′,6-diamine] gave an IC50 of 4 nM.

On to `NCCNc1cc(-c2cccc(NCc3cccc(F)c3)n2)c(Cl)cn1` [Compound 159], for which the IC50 came to 1380 nM.

For `N[C@@H]1CC[C@@H](Nc2cc(-c3cccc(NCc4cccc(F)c4)n3)c(Cl)cn2)C1` [Compound 191, N2′-((1R,3R)-3-aminocyclopentyl)-5′-chloro-N6-(3-fluorobenzyl)-2,4′-bipyridine-2′,6-diamine], the IC50 stood at 7.94 nM.

For the compound `NC(=O)c1ncc(-c2cc(N[C@H]3CC[C@H](N)CC3)ncc2Cl)nc1NCC1CCOCC1` [Compound 224, 5-(2-(trans-4-aminocyclohexylamino)-5-chloropyridin-4-yl)-3-((tetrahydro-2H-pyran-4-yl)methyl)aminopyrazine-2-carboxamide], the concentration for half-maximal inhibition (IC50) turned out to be 91.9 nM.

Regarding `NC[C@H]1CC[C@H](Nc2cc(-c3cccc(NCc4cccc(Cl)c4)n3)c(Cl)cn2)CC1` [Compound 62], the IC50 was determined as 7.95 nM.

For `O[C@H]1CC[C@H](Nc2cc(-c3cncc(NCC4CCOCC4)n3)c(Cl)cn2)CC1` [Compound 208, trans-4-(5-chloro-4-(6-((tetrahydro-2H-pyran-4-yl)methyl)aminopyrazin-2-yl)pyridin-2-yl-amino)cyclohexanol], the half-maximal inhibitory concentration (IC50) was determined as 7.94 nM.

For the compound `COCCN[C@H]1CC[C@H](Nc2cc(-c3nc(NCC4CCOCC4)ccc3Cl)ccn2)CC1` [Compound 274], 37.8 nM corresponded to half-maximal inhibition (IC50).

As for `OCCCNc1cc(-c2cccc(NCc3cccc(F)c3)n2)c(Cl)cn1` [Compound 146], 7.95 nM corresponded to half-maximal inhibition (IC50).

`COC[C@@H](C)N[C@H]1CC[C@H](Nc2cc(-c3ccc(F)c(NCC4CCOCC4)n3)c(Cl)cn2)CC1` [Compound 294] came in with a concentration for half-maximal inhibition (IC50) of 1 nM.

Compound `N[C@H]1CC[C@H](Nc2cc(-c3nc(NCC4CCOCC4)ccc3Br)c(Cl)cn2)CC1` [Compound 286, N2′-(trans-4-aminocyclohexyl)-3-bromo-5′-chloro-N6-((tetrahydro-2H-pyran-4-yl)methyl)-2,4′-bipyridine-2′,6-diamine] yielded an IC50 of 1 nM.

The compound `CN(C)CC(=O)N[C@H]1CC[C@H](Nc2cc(-c3cccc(NCc4cccc(F)c4)n3)c(Cl)cn2)CC1` [Compound 7, N-(trans-4-(5′-chloro-6-(3-fluorobenzylamino)-2,4′-bipyridin-2′-yl-amino)cyclohexyl)-2-(dimethylamino)acetamide] had an IC50 of 24.8 nM.

`Fc1ccc(CNc2cccc(-c3cc(NC4CCNCC4)ncc3Cl)n2)cc1F` [Compound 74] showed an IC50 of 41.6 nM.

`NC[C@H]1CC[C@H](Nc2cc(-c3cccc(NCc4cncc(F)c4)n3)c(Cl)cn2)CC1` [Compound 59] displayed an IC50 of 9.13 nM.

Regarding `N[C@H]1CC[C@H](Nc2cc(-c3cccc(NCc4ccccc4)n3)ccn2)CC1` [Compound 31], the IC50 is 44.8 nM.

`CNC(=O)[C@H]1CC[C@H](Nc2cc(-c3cccc(NCc4cccc(F)c4)n3)c(Cl)cn2)CC1` [Compound 113]: the half-maximal inhibitory concentration (IC50) is 50.2 nM.

The compound `Fc1cccc(CNc2cccc(-c3cc(NC4CCCCC4)ncc3Cl)n2)c1` [Compound 141] displayed an IC50 of 205 nM.

For `CO[C@H]1CC[C@H](Nc2cc(-c3cccc(NCc4cccc(F)c4)n3)c(Cl)cn2)CC1` [Compound 194], 48.1 nM corresponded to half-maximal inhibition (IC50).

`N[C@H]1CC[C@H](Nc2cc(-c3cccc(NCc4ccncc4)n3)ccn2)CC1` [Compound 33] registered an IC50 of 27 nM.

Regarding `N[C@H]1CC[C@H](Nc2cc(-c3cncc(NC[C@H]4CCCOC4)n3)c(Cl)cn2)CC1` [Compound 261], the IC50 was 7.94 nM.

For the compound `Fc1cccc(CNc2cccc(-c3cc(NCC[C@@H]4CCCNC4)ncc3Cl)n2)c1` [Compound 167], 18 nM corresponded to half-maximal inhibition (IC50).

Compound `Clc1cnc(N[C@H]2CC[C@H](NCC3COCCO3)CC2)cc1-c1nc(NCC2CCOCC2)ccc1Cl` (stereo partly shown) [Compound 271] displayed an IC50 of 7.94 nM.
